{"source": "patent US20230398106A1", "about": "(NEURORIVE INC, priority 2020, published 2023)", "test_system": "5×FAD mouse", "assay": "Morris water maze (MWM) task in 5×FAD mice", "type": "in vivo", "method": "A Morris water maze (MWM) task was conducted to examine an effect on improving cognitive function depending on the administration of the complex composition of the present invention. […] The above markers remained unchanged throughout the test period. The escape platform was placed 1 cm above the water surface or 0.5 to 1.5 cm below the water surface according to the purpose of the experiment. When placed under the water surface, the water was made opaque with white water-based paint so that the escape platform was not visible to the eye. The Morris water maze was divided into four quadrants, i.e., northeast (NE), northwest (NW), southeast (SE) and southwest (SW), wherein the escape platform was placed in the center of the southwest quadrant, and the mouse started randomly from one of the others.\nThe escape platform was made visible on Learning DAY 0. Each mouse was trained to recognize that it was possible to escape when they swam toward the escape platform and landed thereon. On DAY 1-4, the escape platform was hidden by being placed under the water, and then the mice learned the position of the escape platform. […] The mice were then immediately transferred to the breeding cage. On DAY 5, the probe test was performed without the escape platform. The probe test was performed by placing the mouse in the farthest part of the quadrant where the escape platform was placed during the training day, and 60 seconds was set as the time limit. The indexes of cognitive function include the escape latency which is the time required for the mouse to find the escape platform and the time spent in the quadrant where the escape platform was placed. It was judged that the shorter the time it takes to escape (FIG. 2A) and the longer the mouse stays in the quadrant where the escape platform was placed (FIG. 2B), the better the memory and learning ability of the mouse.\nThen, each group was subjected to oral administration for 4 weeks to perform the experiment."}
{"molecule": "COc1cc2c(cc1OC)C(=O)C(CC1CCN(Cc3ccccc3)CC1)C2", "note": "(stereo not drawn) [Donepezil, donepezil]", "values": [{"measurement": "escape latency reduced by, based on the mutant mouse vehicle group", "setting": "2 mg/kg of donepezil alone, reduction stated in text", "value": 14.2, "unit": "%"}, {"measurement": "Escape latency (Increase or decrease compared to mutated mouse vehicle group)", "setting": "Mutated mouse, Donepezil 2 mg/kg oral, 4 weeks, DAY 4", "value": "−14.2", "unit": "%"}, {"measurement": "time spent in the target quadrant (Increase or decrease compared to mutated mouse vehicle group)", "setting": "Mutated mouse, donepezil 2 mg/kg oral, 4 weeks, probe test DAY 5", "value": 73.20, "unit": "%"}]}
